Legend:
[1] = target: T1, TGR5 (NCI-H716 cell line) (Homo sapiens, UniProt Q8TDU6); experiment: NCI-H716 cAMP Agonist EC50 Determination
T1 sequence (Q8TDU6 1-330): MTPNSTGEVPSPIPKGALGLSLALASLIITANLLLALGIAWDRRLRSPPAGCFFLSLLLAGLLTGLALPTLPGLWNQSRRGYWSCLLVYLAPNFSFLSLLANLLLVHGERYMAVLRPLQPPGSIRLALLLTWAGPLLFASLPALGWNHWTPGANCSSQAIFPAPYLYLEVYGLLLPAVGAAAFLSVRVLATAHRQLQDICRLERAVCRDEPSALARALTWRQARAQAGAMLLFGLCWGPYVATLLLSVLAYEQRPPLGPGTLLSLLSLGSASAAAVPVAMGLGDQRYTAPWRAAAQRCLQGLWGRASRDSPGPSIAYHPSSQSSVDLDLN
Experimental: Cells were cultured in suspension using RPM containing: 10% HI FBS, and 1× Penn/Strep and were cryostored (1E7 cells/vial in 5% DMSO).
A Normalized signal (NS) is generated by the Envision for each well ((Read 1/Read 2)×10,000).
The data from the Envision were imported to an Excel worksheet. nM cAMP is calculated for each well from the cAMP standard curves located on each plate by first calculating the slope and deriving the intercept (b).
[formula] [formula] [formula] EC50 values were determined from a 4-point fit (Hill equation) of a single 11-point compound dosing.

[2] = target: T2, TGR5 (STC1 cell line) (Mus musculus, UniProt Q80SS6); experiment: STC1 cAMP Agonist EC50 Determination
T2 sequence (Q80SS6 1-329): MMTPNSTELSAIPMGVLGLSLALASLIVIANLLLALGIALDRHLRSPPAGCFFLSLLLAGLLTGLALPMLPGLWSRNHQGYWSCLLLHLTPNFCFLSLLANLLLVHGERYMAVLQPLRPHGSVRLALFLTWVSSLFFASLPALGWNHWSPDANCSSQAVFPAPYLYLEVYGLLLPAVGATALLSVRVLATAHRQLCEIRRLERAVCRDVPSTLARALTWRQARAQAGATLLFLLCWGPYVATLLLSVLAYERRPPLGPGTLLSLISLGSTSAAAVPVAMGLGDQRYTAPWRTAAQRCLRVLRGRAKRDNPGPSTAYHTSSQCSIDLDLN
Experimental: Cell stocks were maintained and grown in a sub-confluent state using standard cell culture procedures. The day before the experiment, the cells were harvested with non-enzymatic cell dissociation buffer and resuspended in complete growth media at 4E5 c/ml. […] The seeded plates were incubated overnight at 37° C.
On the day of the experiment, Assay Buffer containing: HBSS with Ca^2+and Mg^2+; 5 μM HEPES; 0.1% BSA; and, 0.5 μM IBMX was prepared. The growth medium was washed from the cell plates and replaced with 20 μL of Assay Buffer. […] The reaction was stopped by the addition of 20 μL 0.1% Formic Acid to all wells. Sixty minutes later 30 μL 3 M deuterated AMP was added to all wells (as a control for volume addition to the mass spec). Plates were mixed on a plate shaker for 1 min and centrifugated (5 min 3000 RPMs no brakes).
Plates were run on a 4000 QTrap triple-quadrapole Mass spectrometer in positive ion mode coupled with a Biocius RapidFire 300is. […] Two ions (cAMP and deuterated AMP were measured using Multiple Reaction Monitoring (MRM) in positive ion mode and the area under the curve (AUC) was determined for each of the ions.
The data from the Mass Spec/Rapid Plate AUC for cAMP and deuterated AMP were imported to an Excel worksheet. A Normalized signal (NS) was generated for each well=(cAMP AUC for the well/deut AMP AUC for the well)*average deut AMP AUC for the plate). nM cAMP was calculated for each well from the cAMP standard curves located on each plate by first calculating the slope and deriving the intercept (b).
EC50 values were determined from a 4-point fit (Hill equation) of a single 11-point compound dosing.

| EC50 [1] [µM] | EC50 [2] [µM] | SMILES |
| --- | --- | --- |
| 15.2 | 0.18 | COC(=O)[C@H](CCCNC(=N)N)NC(=O)c1cc(F)c(CSc2nc3c(n2-c2ccc(F)cc2)C(C)(c2ccc(Cl)c(OC)c2)CCC3)c(F)c1 (stereo partly drawn) [Example 82, (S)-methyl 2-(4-((7-(4-chloro-3-methoxyphenyl)-1-(4-fluorophenyl)-4,5,6,7-tetrahydro-7-methyl-1H-benzo[d]imidazol-2-ylthio)methyl)-3,5-difluorobenzamido)-5-guanidinopentanoate trifluoroacetic acid] |
| > 50 | 0.53 | COc1cc(C2CCCc3nc(SCc4c(F)cccc4C#N)n(-c4ccc(F)cc4)c32)ccc1Cl (stereo not drawn) [Example 14, 2-([[7-(4-chloro-3-methoxyphenyl)-1-(4-fluorophenyl)-4,5,6,7-tetrahydro-1H-1,3-benzodiazol-2-yl]sulfanyl]methyl)-3-fluorobenzonitrile] |
| 12.5 | 0.37 | COc1cc(C2(C)CCCc3nc(SCc4c(F)ccc(O)c4F)n(-c4ccc(F)cc4)c32)ccc1Cl (stereo not drawn) [Example 95, 3-((7-(4-chloro-3-methoxyphenyl)-1-(4-fluorophenyl)-7-methyl-4,5,6,7-tetrahydro-1H-benzo[d]imidazol-2-ylthio)methyl)-2,4-difluorophenol trifluoroacetic acid] |

— US10077241B2 (Janssen Pharmaceutica NV, priority 2014, dated 2018)
